What is called pKa is the pH at which an ionisable group is half protonated. The Kd is the concentration at which binding is half-saturated. A higher Kd goes with lower affinity.

Data set [1] in a line: Spectral properties in water (absorption, emission, quantum yield, lifetime). Format: physicochemical. Conditions: for φf (quantum yield): relative to SPQ (φf=0.53 in water). The protocol: All steady state fluorescence measurements were performed in a 4×1×1 cm fluorometric plastic cuvette, using a Varian Cary Eclipse fluorometer, and all absorption measurements were performed using a Varian UV/VIS 50 spectrophotometer.
Time-solved intensity decays were measured using reverse start-stop time-correlated single-photon timing (TCSPC) with a Becker and Hickl Gmbh 630 SPC PC card and unamplified MCP-PMT. Vertically polarized excitation at ˜372 nm was obtained using a pulsed LED source (1 MHz repetition rate) and a dichroic sheet polarizer. The instrumental response function was ˜1.1 ns fwhm. The emission was collected at the magic angle (54.7°) using a long pass filter (Edmund Scientific) which cut-off the excitation wavelengths.
The intensity decays were analyzed in terms of the multi-exponential model:
[formula] where αi are the amplitudes and τi are the decay times, Σαi=1.0. The fractional contribution of each component to the steady-state intensity is given by:
The mean lifetime of the excited state is given by:
The values of αi and τi were determined by non-linear least squares impulse reconvolution with a goodness-of-fit χ^2R criterion.
A representative absorption and emission spectra for o-BMQBA in water is shown in FIG. 3B, which corresponds to all three isomers and BMQ. BMQBA has a strong absorption band at ˜320 nm, which can be assigned to n→π* transitions, and an excitation band at ˜427 nm, and as such, has a large Stokes shift of about 100 nm, which is ideal for fluorescence sensing. The quantum yield values of the BMQBA compounds in water relative to N-(3-sulfopropyl)-6-methoxyquinolinium (SPQ) (φf=0.53 in water) are shown in Table 1. The low quantum yields and relatively short lifetime of the BMQBA and BMQ molecules can be attributed to a photo-induced electron transfer, whereby the phenyl ring acts as the donor and the quinolinium moiety acts as the acceptor.
A representative absorption and emission spectra for o-BMOQBA in water is shown in FIG. 3A, which corresponds to all three isomers and BMOQ. BMOQBA has a strong absorption band at ˜345 nm, which can be assigned to n→π* transitions, and an excitation band at ˜450 nm, and as such, has a large Stokes shift of about 100 nm, which is ideal for fluorescence sensing. The quantum yield values of the BMOQBA compounds in water relative to N-(3-sulfopropyl)-6-methoxyquinolinium (SPQ) (φf=0.53 in water) are shown in Table 2. […] We can only speculate as to the quantum yield differences between the m-BMOQBA and p-BMOQBA compounds, which may be attributed to through-bond and through-space mechanisms.

A short description of data set [2]: pKa from normalized fluorescence intensity versus pH, with and without 100 mM sugar. Type of data set: physicochemical. An excerpt: A normalized plot of intensity at 427 nm as a function of pH is shown in FIG. 6, wherein I is the emission intensity at the specified pH and Io is the initial emission intensity at pH 3.0. Though not to be bound by theory, it is likely that the change in fluorescence intensity relative to pH value is attributed to the change in hybridization of the boron atom with increasing pH. At low pH values, the boronic acid group is an electron-deficient Lewis acid that is sp^2-hybridized and thus is trigonal planar. As the pH increases, the anionic form of the boronic acid begins to form, which corresponds to a more electron rich sp^3-hybridized boron atom and an […] shape. The change in the geometry of the boron atom induces the fluorescence spectral changes of the molecular sensing moieties.
Based on previously reported pKa values for boronic acid compounds, these pKa values are the lowest reported for a phenyl boronic acid derivative. The quaternary nitrogen of the quinolinium moiety not only reduces the pKa of the compound, but also stabilizes the anionic boronate diester complex (represented by D in FIG. 1), which may explain the affinity of sugar for these novel compounds. Importantly, the large decrease in the pKa of the boronic acid-sugar complex relative to the uncomplexed boronic acid, allows for the quantitative detection of monosaccharides at or below physiological pH because substantial optical changes are observed.
A normalized plot of intensity at 450 nm as a function of pH is shown in FIG. 14, wherein normalized intensity is the emission intensity at the specified pH, I, relative to the initial emission intensity at pH 3.0, Io. As discussed with reference to o-BMQBA, the change in the geometry of the boron atom may explain the fluorescence spectral changes of the molecular sensing moieties.
Comparing the pKa values of previously reported boronic acid compounds relative to the novel BMOQBA isomers, these pKa values are relatively low. As discussed with reference to o-BMQBA, the lower pKa values can be attributed to the increased Lewis acidity of the boronate diester complex (represented by D in FIG. 1). Importantly, the large decrease in the pKa of the boronic acid-sugar complex relative to the uncomplexed boronic acid, allows for the quantitative detection of monosaccharides at or below physiological pH because substantial optical changes are observed.

Data set [3] is described as follows: Dissociation constant from fluorescence titration with fructose. Conditions: pH 7.5 phosphate buffer. Type of data set: binding. The source says:
Stability (KS (mM^−1) and dissociation (KD) constants were obtained by fitting the titration curves with sugar to the relation:
[formula] where Imin and Imax are initial (no sugar) and final (plateau) fluorescence intensities of the titration curves and KD=(1/KS).

Setting [4] is: buffer with 100 mM fructose, 100 mM fructose, read-out: pKa (buffer + fructose).
Setting [5] is: buffer with 100 mM glucose, 100 mM glucose, read-out: pKa (buffer + glucose).
Setting [6] is: buffer without sugar, absence of sugar, read-out: pKa (buffer).

Where two headings read alike, the source gives them in different places.

Regarding `COc1ccc2c(ccc[n+]2Cc2ccccc2B(O)O)c1.[Br-]` [o-BMOQBA, N-(2-boronobenzyl)-6-methoxyquinolinium bromide], in data set [1], the “λem (max)” value is 450 nm, the “τf (mean lifetime)” value stood at 26.7 ns and the “φf (quantum yield)” value amounted to 0.46. Moreover, the pKa in data set [2] (setting [4]) was 4.8. Further, the pKa in data set [2] (setting [5]) was 6.62. For the same molecule, the pKa in data set [2] (setting [6]) came out at 7.9. Also, the Kd in data set [3] was 650 µM.
In the case of `Cc1ccc2c(ccc[n+]2Cc2ccccc2B(O)O)c1.[Br-]` [o-BMQBA, N-(2-boronobenzyl)-6-methylquinolinium bromide], in data set [1], the “λabs (max)” value came out at 319 nm, the “λem (max)” value is on record as 427 nm, the “τf (mean lifetime)” value was 4.01 ns and the “φf (quantum yield)” value amounted to 0.043. Also, the pKa in data set [2] (setting [4]) came to 5.08. The pKa in data set [2] (setting [5]) is 6.18. Also, the pKa in data set [2] (setting [6]) was 6.92. In data set [3], the Kd was 4700 µM.

The values above are taken from patent publication US7718804B2, “Quaternary nitrogen heterocyclic compounds for detecting aqueous monosaccharides in physiological fluids” (University of Maryland Biotechnology Institute, priority 2003, dated 2010).
